From PMC5500990 (European Journal of Medicinal Chemistry, 2017)
Entries after “also recorded” stand apart in the source; their conditions may differ. Blank lines part the entries; values can stand above or below the compound they belong to. *1 amine or outer side, *2 acyl side, *3 side chain or, on linkers, in order; H or OH if unused. Where a SMILES comes first, the peptide text is derived from it. Where no end group is shown, it is not given here. [ ]: non-standard residue; d: D form. X1 = C=CC(C)(C)n1cc(C[C@@H](N[*:1])C(=O)[*:2])c2ccccc21; X3 = CCCCCn1cc(C[C@@H](N[*:1])C(=O)[*:2])c2ccccc21; X4 = CCCn1cc(C[C@@H](N[*:1])C(=O)[*:2])c2ccccc21; dTrp(1-Bu) = CCCCn1cc(C[C@@H](N)C(=O)O)c2ccccc21; X2 = CCn1cc(C[C@@H](N[*:1])C(=O)[*:2])c2ccccc21; dTrp(1-Me) = Cn1cc(C[C@@H](N)C(=O)O)c2ccccc21; dNMeF = CN[C@H](Cc1ccccc1)C(=O)O

Assays:
[1] = Stability in neat mouse plasma (RP-HPLC); format: in vitro ADME
Source text: When optimising for functional activity there is also a need to assess whether the desired modification will negatively affect the stability of the peptide. Characterisation of the metabolism of peptides is useful to improve their stability in vivo. The finding that a carboxylic acid group, instead of the usual amide, at the C-terminus inactivates the cytotoxicity of 16 (results of 20 - Table 1) may compromise its use in vivo as protein de-amidation reactions are widespread in plasma. Peptides 16 and 19, being the most cytotoxic peptides, were exposed to the conditions of in vitro metabolism in plasma. Peptide 20 lacking the amide group was used as a control. Peptides 16, 19 and 20 were incubated in neat mouse plasma at 37 °C for 48 h. Peptide 2, previously tested over a shorter incubation time, was included for benchmarking purpose.
Peptides were added to neat mouse plasma at a concentration of 400 μg/ml and incubated as the above conditions stated in Section 5.1. Aliquots (20 μl) were taken at 0, 3, 24 and 48 h. To the 20 μl sample, 80 μl of solution B was added and left for 5 min, prior to 1 min sonication to precipitate plasma proteins. The sample was then centrifuged for 5 min at full speed. Then 80 μl of the supernatant was added to 120 μl of solution A and transferred into a HPLC microvial to be analysed using the C8 column. A linear gradient elution was made starting with 100% of solution A and ending after 30 mins with 100% of solution B, with a flow rate of 1 ml/min and followed at λmax 220 nm. The injection volume was 36 μl. Assays were repeated three independent times. HPLC microvials at 0 and 48 h were characterised by ESIMS using the instrument stated in Section 4.1.

[2] = test system: H69 cells; assay: Cell viability assay using resazurin dye, H69 cells; format: cell-based, human; conditions: for IC50: 48 h; for fold enhancement in cytotoxicity compared to tert-Prenyl^4th-NH2 (2): H69 cell line
Description: (§1) Cell viability was evaluated by treating H69 and DMS79 cells with peptides 13–20 in the 0.1–30 μM range for 48 h, with subsequent use of the resazurin dye cell viability assay. IC50 values (Table 1) for all the peptides were derived from the dose response curves (Fig. S24). Table 1 also presents the IC50 values obtained for 1 and 2 previously. RPMI-1640 (with L-glutamine and NaHCO3) was obtained from Sigma-Aldrich. Heat Inactivated Fetal Bovine Serum (FBS) was obtained from Life Technologies. H69 and DMS79 SCLC cell lines were obtained from as previously stated. Cells were grown in 10% v/v FBS/RPMI-1640 (complete medium) and incubated at 37 °C in humidified air atmosphere of 5% CO2. Both, H69 and DMS79 cells are suspension cells and grow in aggregates. For the experimental part, cells were re-suspended in fresh complete medium. Dulbecco's PBS (without calcium chloride and magnesium chloride) and Resazurin sodium salt were obtained from Sigma-Aldrich. The peptide concentrations were calculated accurately using UV/VIS Spectrometer Perkin Elmer instrument and dilution of the stock concentration was made using 50% v/v FBS/sterile saline. Concentrations prepared were ranged from 0.6 to 0.002 mM. Cells were seeded in 96-well plates at a seeding density of 1 × 10^4 cells/190 μl/well in triplicates. Peptides were then added on the same day and incubated as the above conditions stated in Section 5.1. The amount of peptide solution added into each well was 10 μl, resulting in a final well concentration of 30 to 0.1 μM. Untreated control samples were also prepared. Samples for background fluorescence for the resazurin dye were also prepared using only complete medium. After 48 h incubation, resazurin dye (20 μl; 0.125 mg/ml in PBS) was added to each well and incubated as the above conditions stated in Section 5.1 for 5 h. Then, fluorescence readings were recorded using a Tecan Safire plate reader and % viability calculated. Assays were repeated three independent times. Graphs were generated using GraphPad Prism 7.00 software.

[3] = test system: DMS79 cells; assay: Cell viability assay using resazurin dye, DMS79 cells; format: cell-based, human; conditions: for IC50: 48 h; for fold enhancement in cytotoxicity compared to tert-Prenyl^4th-NH2 (2) / fold reduction in potency/cytotoxicity compared to 16: DMS79 cell line
Description: as §1

[4] = Stability in S9 liver fraction from mouse with cofactors; format: in vitro ADME; conditions: period of 3 h
Description: Peptides 16 and 19 were further subjected to the S9 liver fraction from mouse in the presence of cofactors for a period of 3 h. This would give further insight into the stability of the peptides towards Phase I and Phase II metabolising enzymes.
Eppendorf® tubes were used for sample preparations. Chemicals, HPLC microvials, S9 liver fraction (from mouse (CD-1), male, 20 mg/ml protein basis, vial of 1.0 mL) and co-factors: beta-nictoinamide adenine dinucleotide disodium salt hydrate (NADPH), uridine 5’-diphosphoglucuronic acid trisodium salt (UDPGA), L-glutathione (GSH) and adenosine 3’-phosphate 5’-phosphosulfate lithium salt hydrate (PAPS) were obtained from Sigma-Aldrich. RP-HPLC analysis was performed using the instrument, C8 column and solutions (A and B) stated in Section 4.2.
The preparation and analysis of the samples for peptides stability in the S9 liver fraction from mouse was similar to that for the mouse plasma studies, except that addition of cofactors for enzymes activation was required and the aliquots were taken at 0, 1, 2 and 3 h. The cofactors were added to initiate the study as previously described. Briefly, stock concentrations of NADPH (40 mM), UDPGA (20 mM), GSH (2 mM) and PAPS (2 mg/ml) were prepared using Tris buffer (200 mM) (pH 7.4) containing 2 mM magnesium chloride. […]

[5] = S9 liver fraction (from mouse (CD-1), male, 20 mg/ml protein basis) with cofactors NADPH, UDPGA, GSH and PAPS; conditions: up to 3 h
[6] = neat mouse plasma; conditions: 37 °C, up to 48 h
[7] = test system: serine protease; conditions: cited from earlier work

Compound: CN[C@H](Cc1ccccc1)C(=O)N[C@H](Cc1c[nH]c2ccccc12)C(=O)N[C@@H](Cc1ccccc1)C(=O)N[C@H](Cc1cn(C)c2ccccc12)C(=O)N[C@@H](CC(C)C)C(N)=O [Peptide 13] (H-[dNMeF][dW]F[dTrp(1-Me)]L-NH2)
IC50 [2]: 3.98 ± 0.22 µM
times less active than 2 ([2]; H69): ~1.4 times
IC50 [3]: 4.03 ± 0.31 µM

Compound: C=CC(C)(C)n1cc(C[C@@H](NC(=O)[C@H](Cc2ccccc2)NC(=O)[C@@H](Cc2c[nH]c3ccccc23)NC(=O)[C@@H](Cc2ccccc2)NC)C(=O)N[C@@H](CC(C)C)C(N)=O)c2ccccc21 [Peptide 2, DMePhe-DTrp-Phe-DTrp(N-tert-prenyl)-Leu-NH2] (H-[dNMeF][dW]F[X1]L-NH2)
% (± SE) of parent peptide to degradation product(s) in plasma studies ([1]; 37 °C, 0 hr, n = 3): 100%
% (± SE) of parent peptide to degradation product(s) in plasma studies ([1]; 37 °C, 24 hrs, n = 3, listed as tert-Prenyl^4th-NH2): ~58%
metabolised at 24 h, 400 μg/ml ([1]; after 24 h exposure, read-out: degraded in plasma): ~42%

Compound: CCn1cc(C[C@@H](NC(=O)[C@H](Cc2ccccc2)NC(=O)[C@@H](Cc2c[nH]c3ccccc23)NC(=O)[C@@H](Cc2ccccc2)NC)C(=O)N[C@@H](CC(C)C)C(N)=O)c2ccccc21 [Peptide 14] (H-[dNMeF][dW]F[X2]L-NH2)
IC50 [2]: 1.83 ± 0.03 µM
IC50 [3]: 1.92 ± 0.03 µM

Compound: CCCCn1cc(C[C@@H](NC(=O)[C@@H](Cc2ccccc2)NC)C(=O)N[C@@H](Cc2ccccc2)C(=O)N[C@H](Cc2c[nH]c3ccccc23)C(=O)N[C@@H](CC(C)C)C(N)=O)c2ccccc21 [Peptide 18] (H-[dNMeF][dTrp(1-Bu)]F[dW]L-NH2)
IC50 [2]: 4.05 ± 0.17 µM
IC50 [3]: 3.88 ± 0.15 µM
fold reduction in potency/cytotoxicity compared to 16 [3]: 3–4 fold

Compound: CCCCCn1cc(C[C@@H](NC(=O)[C@H](Cc2ccccc2)NC(=O)[C@@H](Cc2c[nH]c3ccccc23)NC(=O)[C@@H](Cc2ccccc2)NC)C(=O)N[C@@H](CC(C)C)C(N)=O)c2ccccc21 [Peptide 17] (H-[dNMeF][dW]F[X3]L-NH2)
IC50 [2]: 1.8 ± 0.1 µM
IC50 [3]: 2.37 ± 0.06 µM

Compound: CCCn1cc(C[C@@H](NC(=O)[C@H](Cc2ccccc2)NC(=O)[C@@H](Cc2c[nH]c3ccccc23)NC(=O)[C@@H](Cc2ccccc2)NC)C(=O)N[C@@H](CC(C)C)C(N)=O)c2ccccc21 [Peptide 15] (H-[dNMeF][dW]F[X4]L-NH2)
IC50 [2]: 1.57 ± 0.1 µM
IC50 [3]: 1.91 ± 0.03 µM

Compound: CCCCn1cc(C[C@@H](NC(=O)[C@H](Cc2ccccc2)NC(=O)[C@@H](Cc2c[nH]c3ccccc23)NC(=O)[C@@H](Cc2ccccc2)NC)C(=O)N[C@@H](CC(C)C)C(N)=O)c2ccccc21 [Peptide 16, DMePhe-DTrp-Phe-DTrp(N-butyl)-Leu-NH2] (H-[dNMeF][dW]F[dTrp(1-Bu)]L-NH2)
% (± SE) of parent peptide to degradation product(s) in plasma studies ([1]; 37 °C, 0 hr, n = 3): 100%
% (± SE) of parent peptide to degradation product(s) in plasma studies ([1]; 37 °C, 3 hrs, n = 3): 94.30 ± 0.20%
% (± SE) of parent peptide to degradation product(s) in plasma studies ([1]; 37 °C, 24 hrs, n = 3): > 80%
% (± SE) of parent peptide to degradation product(s) in plasma studies ([1]; 37 °C, 24 hrs, n = 3, 1440 min): 80.30 ± 0.32%
% (± SE) of parent peptide to degradation product(s) in plasma studies ([1]; 37 °C, 48 hrs, n = 3): 68.47 ± 0.23%
IC50 [2]: 1.01 ± 0.02 µM
fold enhancement in cytotoxicity compared to tert-Prenyl^4th-NH2 (2) [2]: ~3 fold
IC50 [3]: 1.43 ± 0.14 µM
fold enhancement in cytotoxicity compared to tert-Prenyl^4th-NH2 (2) [3]: ~3 fold
stability in S9 liver fraction (in words) [4]: completely stable

Compound: [dR]PKP[dF]Q[dW]F[dW]LL-NH2
cleaved bond [7]: Leu-NH2, major

Continued, in another order:

% (± SE) of parent peptide to degradation product(s) in plasma studies ([1]; 37 °C, 0 hr, n = 3): 100%
% (± SE) of parent peptide to degradation product(s) in plasma studies ([1]; 37 °C, 3 hrs, n = 3): 98.67 ± 0.69%
% (± SE) of parent peptide to degradation product(s) in plasma studies ([1]; 37 °C, 24 hrs, n = 3): > 80%
% (± SE) of parent peptide to degradation product(s) in plasma studies ([1]; 37 °C, 24 hrs, n = 3, 1440 min): 89.73 ± 0.68%
% (± SE) of parent peptide to degradation product(s) in plasma studies ([1]; 37 °C, 48 hrs, n = 3): 81%
% (± SE) of parent peptide to degradation product(s) in plasma studies ([1]; 37 °C, 48 hrs, n = 3, 2880 min): 81.00 ± 2.25%
stability in S9 liver fraction (in words) [4]: completely stable
Compound: CCCCn1cc(C[C@@H](NC(=O)[C@H](Cc2ccccc2)NC(=O)[C@@H](Cc2cn(CCCC)c3ccccc23)NC(=O)[C@@H](Cc2ccccc2)NC)C(=O)N[C@@H](CC(C)C)C(N)=O)c2ccccc21 [Peptide 19] (H-[dNMeF][dTrp(1-Bu)]F[dTrp(1-Bu)]L-NH2)
IC50 [2]: 0.63 ± 0.05 µM
fold enhancement in cytotoxicity compared to tert-Prenyl^4th-NH2 (2) [2]: ~4.5 fold
IC50 [3]: 2.31 ± 0.12 µM
fold enhancement in cytotoxicity compared to tert-Prenyl^4th-NH2 (2) [3]: ~2 fold
fold reduction in potency/cytotoxicity compared to 16 [3]: ~1.6 fold

cleaved bond [6]: Leu-NH2, 3 hrs
Compound: DMePhe-DTrp-Phe-DTrp(N-butyl)-Leu-NH2 (H-[dNMeF][dW]F[dTrp(1-Bu)]L-NH2; SMILES CCCCn1cc(C[C@@H](NC(=O)[C@H](Cc2ccccc2)NC(=O)[C@@H](Cc2c[nH]c3ccccc23)NC(=O)[C@@H](Cc2ccccc2)NC)C(=O)N[C@@H](CC(C)C)C(N)=O)c2ccccc21)
not cleaved [5]: completely stable in S9 liver fraction (3 h)

cleaved bond [6]: Leu-NH2, 3 hrs
Compound: DMePhe-DTrp-Phe-DTrp(N-tert-prenyl)-Leu-NH2 (H-[dNMeF][dW]F[X1]L-NH2; SMILES C=CC(C)(C)n1cc(C[C@@H](NC(=O)[C@H](Cc2ccccc2)NC(=O)[C@@H](Cc2c[nH]c3ccccc23)NC(=O)[C@@H](Cc2ccccc2)NC)C(=O)N[C@@H](CC(C)C)C(N)=O)c2ccccc21)

% (± SE) of parent peptide to degradation product(s) in plasma studies ([1]; 37 °C, 0 hr, n = 3): 100%
% (± SE) of parent peptide to degradation product(s) in plasma studies ([1]; 37 °C, 3 hrs, n = 3): 100%
% (± SE) of parent peptide to degradation product(s) in plasma studies ([1]; 37 °C, 24 hrs, n = 3): 100%
% (± SE) of parent peptide to degradation product(s) in plasma studies ([1]; 37 °C, 48 hrs, n = 3): 100%
Compound: CCCCn1cc(C[C@@H](NC(=O)[C@H](Cc2ccccc2)NC(=O)[C@@H](Cc2c[nH]c3ccccc23)NC(=O)[C@@H](Cc2ccccc2)NC)C(=O)N[C@@H](CC(C)C)C(=O)O)c2ccccc21 [Peptide 20] (H-[dNMeF][dW]F[dTrp(1-Bu)]L-OH)
degradation in plasma (in words) ([1]; 37 °C, up to 48 h, RP-HPLC and MS): no sign of degradation; also recorded: complete stability in plasma
IC50 [2]: > 30 µM
IC50 [3]: > 30 µM
